Values after ≈ are worked out from the molar mass of the structure shown. One block for each compound: values may come before it. Where a SMILES comes first, the peptide text is derived from it. Bridges are numbered along the chain shown (N, C = ends). [ ]: non-standard residue; d: D form. The star is where a group is joined. X2 = NC[C@@H](CC(=O)*)c1cccc(-c2ccccc2)c1; X3 = CC(C)c1cccc([C@@H](CN)CC(=O)*)c1; X16 = NC[C@H](CC(=O)*)Cc1cccc(Cl)c1; X8 = NC[C@@H](CC(=O)*)Cc1cccc(Cl)c1; Dab = NCC[C@H](N)C(=O)O; Abu = CC[C@H](N)C(=O)O; Dap = NC[C@H](N)C(=O)O
Columns and labels:
P. aeruginosa CCUG 59347 = assay type: cell-based; details: CCUG 59347
Experimental: (§1) The inoculum was prepared by making a direct suspension of isolated colonies (selected from an 18-24 hour Mueller-Hinton agar plate) adjusted to the 0.5 McFarland standard. […] The assays were performed in duplicate. […] Several of the compounds were subjected to multiple tests, and where this is the case, the MIC presented is the median value obtained. The MIC values are quoted in μg/mL.

E. coli CA58 = assay type: cell-based; details: CA58
Experimental: as §1

K. pneumoniae CA64 = assay type: cell-based; details: CA64
Experimental: as §1

A. baumannii NCTC 13424 = assay type: cell-based; details: NCTC 13424
Experimental: (§2) The inoculum was prepared by making a direct suspension of isolated colonies (selected from an 18-24 hour Mueller-Hinton agar plate) adjusted to the 0.5 McFarland standard. […] The assays were performed in duplicate. […] The MIC values are quoted in μg/mL.

P. aeruginosa ATCC 27853 = assay type: cell-based; details: ATCC 27853
Experimental: as §2

[1] = tested on: A. baumannii ATCC BAA-747; assay type: cell-based; details: ATCC BAA-747
Experimental: as §2

E. coli ATCC 25922 = assay type: cell-based; details: ATCC 25922
Experimental: as §2

K. pneumoniae ATCC 13822 = assay type: cell-based; details: ATCC 13822
Experimental: as §2

HK-2 cells = assay: In vitro renal cell toxicity assay (HK-2); assay type: cell-based
Experimental: The in vitro renal cell toxicity assay was performed according to the following protocol. […] Cells were seeded at 7,500 cells per well in 96-well plates and allowed to adhere overnight. […] Water and DMSO levels were kept constant at 5% and 0.5% respectively. The test compounds were incubated with cells for 24 h at 37° C. 5% CO2 in a humidified atmosphere. […] Media only background values were subtracted before the data was analysed using GraphPad Prism. Individual values were normalised to the vehicle control wells for each compound. Compound concentration values were plotted as log values to enable a dose-response curve to be fitted. The bottom of the curve was constrained to zero and IC50 values were determined. IC50 values are expressed relative to that for PMB in the same experiment. Where multiple determinations have been made, median values are presented.

[2] = Kidney drug level after subcutaneous dose in mouse; assay type: in vivo; details: mouse, in vivo, sc, 17.2 mg/kg
Experimental: Four hours after dosing the animals were euthanised and kidneys removed, trimmed of fat and connective tissue, weighed and immediately snap-frozen. After thawing at room temperature, pairs of kidneys from each animal were placed in 2 mL conical tubes containing pre-weighed ceria-stabilised zirconium oxide beads. […] After 10 min. centrifugation at 13,000 rpm and 6° C., 200 μl of the supernatants were transferred into glass inserts and analysed by LC-MS-MS.

[3] = Renal toxicity of Example 24 vs PMB after four doses in mouse; assay type: in vivo, mouse; details: mouse, in vivo, sc
Experimental: Immediately after the fourth dose mice were transferred to metabolic cages and urine collected for 24 h. for determination of urinary biomarkers. After urine collection mice were sacrificed for renal histopathology.
The urine biomarkers were normalized to urinary creatinine.

MIC P. aeruginosa CCUG 59347 (P. aeruginosa CCUG 59347): 0.5 µg/mL (≈ 0.445 µM)
MIC E. coli CA58 (E. coli CA58): 8 µg/mL (≈ 7.11 µM)
MIC K. pneumoniae CA64 (K. pneumoniae CA64): 16 µg/mL (≈ 14.2 µM)
MIC A. baumannii NCTC 13424 (A. baumannii NCTC 13424): 0.5 µg/mL (≈ 0.445 µM)
MIC P. aeruginosa ATCC 27853 (P. aeruginosa ATCC 27853): 0.25 µg/mL (≈ 0.222 µM)
MIC A. baumannii ATCC BAA-747 [1]: 0.5 µg/mL (≈ 0.445 µM)
MIC E. coli ATCC 25922 (E. coli ATCC 25922): 0.5 µg/mL (≈ 0.445 µM)
MIC K. pneumoniae ATCC 13822 (K. pneumoniae ATCC 13822): 0.5 µg/mL (≈ 0.445 µM)
Structure (SMILES): CC(C)C[C@@H]1NC(=O)[C@@H](CC(C)C)NC(=O)[C@H](CCN)NC(=O)[C@@H](NC(=O)[C@H](CN)NC(=O)[C@@H](NC(=O)C[C@@H](CN)Cc2cccc(Cl)c2)[C@@H](C)O)CCNC(=O)[C@H]([C@@H](C)O)NC(=O)[C@H](CCN)NC(=O)[C@H](CCN)NC1=O [Example 13, (S)-4-amino-3-(3- chlorobenzyl)butanoyl- Thr-Dap-Cyclo[Dab- Dab-DLeu-Leu-Dab- Dab-Thr], Isomer 2] (X16-T[Dap][Dab][Dab][dL]L[Dab][Dab]T; lactam 3-C)

MIC P. aeruginosa CCUG 59347 (P. aeruginosa CCUG 59347): 1 µg/mL (≈ 0.889 µM)
MIC E. coli CA58 (E. coli CA58): 8 µg/mL (≈ 7.11 µM)
MIC K. pneumoniae CA64 (K. pneumoniae CA64): 32 µg/mL (≈ 28.4 µM)
MIC A. baumannii NCTC 13424 (A. baumannii NCTC 13424): 0.5 µg/mL (≈ 0.445 µM)
MIC P. aeruginosa ATCC 27853 (P. aeruginosa ATCC 27853): 0.5 µg/mL (≈ 0.445 µM)
MIC A. baumannii ATCC BAA-747 [1]: 0.5 µg/mL (≈ 0.445 µM)
MIC E. coli ATCC 25922 (E. coli ATCC 25922): 1 µg/mL (≈ 0.889 µM)
MIC K. pneumoniae ATCC 13822 (K. pneumoniae ATCC 13822): 0.5 µg/mL (≈ 0.445 µM)
Structure (SMILES): CC(C)C[C@@H]1NC(=O)[C@@H](CC(C)C)NC(=O)[C@H](CCN)NC(=O)[C@@H](NC(=O)[C@H](CN)NC(=O)[C@@H](NC(=O)C[C@H](CN)Cc2cccc(Cl)c2)[C@@H](C)O)CCNC(=O)[C@H]([C@@H](C)O)NC(=O)[C@H](CCN)NC(=O)[C@H](CCN)NC1=O [Example 14, (R)-4-amino-3-(3- chlorobenzy!)butanoyl- Thr-Dap-Cyclo[Dab- Dab-DLeu-Leu-Dab- Dab-Thr] Isomer 1] (X8-T[Dap][Dab][Dab][dL]L[Dab][Dab]T; lactam 3-C)

MIC P. aeruginosa CCUG 59347 (P. aeruginosa CCUG 59347): 0.5 µg/mL (≈ 0.447 µM)
MIC E. coli CA58 (E. coli CA58): 4 µg/mL (≈ 3.58 µM)
MIC K. pneumoniae CA64 (K. pneumoniae CA64): 16 µg/mL (≈ 14.3 µM)
tissue level at time at 4 h [2]: 443000 ng/g
MIC A. baumannii NCTC 13424 (A. baumannii NCTC 13424): 0.06 µg/mL (≈ 0.0536 µM)
MIC P. aeruginosa ATCC 27853 (P. aeruginosa ATCC 27853): 0.25 µg/mL (≈ 0.224 µM)
MIC A. baumannii ATCC BAA-747 [1]: 0.06 µg/mL (≈ 0.0536 µM)
Structure (SMILES): CC(C)C[C@@H]1NC(=O)[C@@H](CC(C)C)NC(=O)[C@H](CCN)NC(=O)[C@@H](NC(=O)[C@H](CN)NC(=O)[C@@H](NC(=O)C[C@H](CN)c2cccc(C(C)C)c2)[C@@H](C)O)CCNC(=O)[C@H]([C@@H](C)O)NC(=O)[C@H](CCN)NC(=O)[C@H](CCN)NC1=O [Example 15, (S)-4-amino-3-(3- isopropylphenyl) butanoyl-Thr-Dap- Cyclo[Dab-Dab-DLeu- Leu-Dab-Dab-Thr]] (X3-T[Dap][Dab][Dab][dL]L[Dab][Dab]T; lactam 3-C)
HK-2 rel to PMB (HK-2 cells): 52.1

MIC P. aeruginosa CCUG 59347 (P. aeruginosa CCUG 59347): 0.25 µg/mL (≈ 0.222 µM)
MIC E. coli CA58 (E. coli CA58): 4 µg/mL (≈ 3.56 µM)
MIC K. pneumoniae CA64 (K. pneumoniae CA64): 16 µg/mL (≈ 14.2 µM)
tissue level at time at 4 h [2]: 203000 ng/g
MIC A. baumannii NCTC 13424 (A. baumannii NCTC 13424): 0.06 µg/mL (≈ 0.0534 µM)
MIC A. baumannii ATCC BAA-747 [1]: 0.03 µg/mL (≈ 0.0267 µM)
MIC K. pneumoniae ATCC 13822 (K. pneumoniae ATCC 13822): 0.25 µg/mL (≈ 0.222 µM)
Structure (SMILES): CC[C@@H]1NC(=O)[C@@H](CC(C)C)NC(=O)[C@H](CCN)NC(=O)[C@@H](NC(=O)[C@H](CN)NC(=O)[C@@H](NC(=O)C[C@H](CN)c2cccc(-c3ccccc3)c2)[C@@H](C)O)CCNC(=O)[C@H]([C@@H](C)O)NC(=O)[C@H](CCN)NC(=O)[C@H](CCN)NC1=O [Example 24, (S)-3-(1,1′-biphenyl- 3-yl)-4-aminobutanoyl-Thr- Dap-Cyclo[Dab-Dab- DLeu-Abu-Dab-Dab- Thr]] (X2-T[Dap][Dab][Dab][dL][Abu][Dab][Dab]T; lactam 3-C)
HK-2 rel to PMB (HK-2 cells): 21.8
Basophilic Tubules (cortex) (animals affected) ([3]; 25 mg/kg): 0/5
Mitotic Figures increased (animals affected) ([3]; 25 mg/kg): 0/5
Tubular Degeneration/necrosis (histopathology, animals affected) ([3]; 25 mg/kg): 0/5
Urine Albumin ([3]; 25 mg/kg): 4.78
Urine Cystatin C ([3]; 25 mg/kg): 31.04
Urine Kim-1 ([3]; 25 mg/kg): 27.61
Urine NGAL ([3]; 25 mg/kg): 0.00
Urine β-2 microglobulin ([3]; 25 mg/kg): 0.05
Basophilic Tubules (cortex) (animals affected) ([3]; 50 mg/kg): 2/5 (2 min)
Mitotic Figures increased (animals affected) ([3]; 50 mg/kg): 2/5 (2 min)
Tubular Degeneration/necrosis (histopathology, animals affected) ([3]; 50 mg/kg): 2/5 (2 min)
Urine Albumin ([3]; 50 mg/kg): 6.95
Urine Cystatin C ([3]; 50 mg/kg): 33.97
Urine Kim-1 ([3]; 50 mg/kg): 171.59
Urine NGAL ([3]; 50 mg/kg): 0.63
Urine β-2 microglobulin ([3]; 50 mg/kg): 13.22
Basophilic Tubules (cortex) (animals affected) ([3]; 75 mg/kg): 5/5 (2 min/
Mitotic Figures increased (animals affected) ([3]; 75 mg/kg): 5/5 (5 min)
Tubular Degeneration/necrosis (histopathology, animals affected) ([3]; 75 mg/kg): 5/5 (1 min/
Urine Albumin ([3]; 75 mg/kg): 10.93
Urine Cystatin C ([3]; 75 mg/kg): 81.44
Urine Kim-1 ([3]; 75 mg/kg): 1,203.41
Urine NGAL ([3]; 75 mg/kg): 3.71
Urine β-2 microglobulin ([3]; 75 mg/kg): 68.51
